Data on two molecules can be found in PMC13198932, “Pyrazolone-based ERO1 inhibitors in ERO1-driven triple-negative breast cancer and SEPN1-related myopathy: Structure–activity relationship and therapeutic potential” (Pharmacological research, 2025).

Entries after “also recorded” stand apart in the source; their conditions may differ.

Assay [1] has as its system WT and SEPN1 KD C2C12 muscle cells. Description: Real-time quantitative RT-PCR of ER stress markers BIP, CHOP, ERO1. Format: cell-based. As to conditions: 2 μM. The text has this:
RNA from WT and SEPN1KD C2C12 was reverse-transcribed and analyzed using the Applied Biosystems’ real-time PCR System and the ΔΔCt method. Relative gene expression in cells was normalized to Actin mRNA levels as in [27].

Assay [2] addresses T1, ERO1 in WT and SEPN1 KO myotubes (Mus musculus, UniProt Q8R180).
T1 construct: endogenous in cells; host or cells: primary myotubes from WT and SEPN1 KO C57BL/6 mice
T1 sequence (Q8R180 24-464): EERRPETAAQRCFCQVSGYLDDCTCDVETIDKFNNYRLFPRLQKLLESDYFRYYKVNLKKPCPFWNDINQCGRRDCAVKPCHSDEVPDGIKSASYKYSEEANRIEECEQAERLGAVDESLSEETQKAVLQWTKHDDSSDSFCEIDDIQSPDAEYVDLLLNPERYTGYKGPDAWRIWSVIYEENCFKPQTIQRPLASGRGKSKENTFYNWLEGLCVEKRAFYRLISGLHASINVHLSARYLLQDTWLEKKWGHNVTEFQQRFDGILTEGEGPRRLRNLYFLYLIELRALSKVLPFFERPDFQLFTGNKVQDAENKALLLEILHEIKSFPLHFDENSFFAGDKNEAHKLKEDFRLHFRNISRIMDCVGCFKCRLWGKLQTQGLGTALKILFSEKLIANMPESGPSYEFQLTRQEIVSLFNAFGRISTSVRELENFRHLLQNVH
Description: ERO1 redox state by non-reducing immunoblot in WT and SEPN1 KO myotubes. Format: cell-based, mice. As to conditions: 3 h treatment. The method, then: Muscle stem cells were isolated from muscles of 1-month-old wild-type (WT) and SEPN1 knockout (KO) mice using a tissue dissociation protocol with the gentleMACS™ Octo Dissociator with Heaters (Miltenyi Biotec, Bergisch Gladbach, Germany), followed by magnetic depletion. To generate myotubes, cells were cultured on Matrigel-coated Ibidi μ-Slide 8 well chambers (Cat. No. 80826, Ibidi GmbH, Gräfelfing, Germany) in DMEM (EuroClone, Pero, Milan, Italy) supplemented with 20 % fetal bovine serum (EuroClone), 3 % chick embryo extract (Cat. 11485015, Fisher Scientific SAS), 10 ng/mL basic fibroblast growth factor (Cat. 13256029, Life Technologies Europe BV), 1 % GlutaMAX (Gibco; Thermo Fisher Scientific, Waltham, MA, USA), and 1 % penicillin-streptomycin (EuroClone).
After 48 h of proliferation, cells were cultured for an additional 2 days in medium containing 2 % horse serum (EuroClone) to induce differentiation, then harvested for analysis. For ERO1 redox state, cells were treated for 3 h with either EN460 or I29, harvested and followed by a non-reducing ERO1 Immunoblot.
(In western blotting, separated proteins are transferred to a membrane and probed.)

A further assay concerns WT and SEPN1 KO myotubes. The assay is described as follows: TMRM staining of mitochondrial membrane potential in WT and SEPN1 KO myotubes. The assay is classed as cell-based, mice. As to conditions: 1–5 μM, 16 h treatment. The method, then: Muscle stem cells were isolated from muscles of 1-month-old wild-type (WT) and SEPN1 knockout (KO) mice using a tissue dissociation protocol with the gentleMACS™ Octo Dissociator with Heaters (Miltenyi Biotec, Bergisch Gladbach, Germany), followed by magnetic depletion. […]
After 16 h of treatment with EN460 or I29 in differentiation medium, the culture medium was removed and replaced with the TMRM staining solution for the assessment of mitochondrial membrane potential. […] TMRM fluorescence was acquired at λexc 561 nm / λem 595 nm by a Nikon A1 confocal system equipped with an Okolab stage incubator (CO2 5 %, 37°C, 90 % humidity) immediately after TMRM and over a 10-minute baseline period with 65 s time interval. […] Data were analyzed using ImageJ. Briefly, background noise was set to NaN and the remaining signal quantified as mean pixel gray values. Data were expressed as ΔF/F0 (F0= mean of baseline signal).

In another assay the test system is MDAMB231 cells. Description: MTS assay of metabolic activity in MDAMB231 cells. The assay is classed as cell-based, human. As to conditions: MDAMB231, dose-response, 24 h, 1 % FBS. The method, then: Six thousand cells (MDAMB231 and E0771) per well were seeded in 96-well plates and cultured in medium containing 1 % FBS. Cells were treated with varying concentrations of compounds and, after 24 h, incubated with MTS [3-(4,5-dimethylthiazol-2-yl)-5-(3-carboxymethoxyphenyl)-2-(4 sulfophenyl)2Htetrazolium]and PMS (phenazine methosulfate), following the instructions of the CellTiter 96® Aqueous Non-Radioactive Cell Proliferation Assay (Promega). Measurements were performed using a TECAN Infinite M200 plate reader with […] at 490 nm.
Background: Tetrazolium assays rely on reduction of a dye to a coloured formazan, in cell work by metabolically active cells.

The target of assay [3] is T2, Human monoamine oxidase A (Mao-A) (Homo sapiens, UniProt P21397).
T2 construct: purchased Sigma-Aldrich
T2 sequence (P21397 1-527): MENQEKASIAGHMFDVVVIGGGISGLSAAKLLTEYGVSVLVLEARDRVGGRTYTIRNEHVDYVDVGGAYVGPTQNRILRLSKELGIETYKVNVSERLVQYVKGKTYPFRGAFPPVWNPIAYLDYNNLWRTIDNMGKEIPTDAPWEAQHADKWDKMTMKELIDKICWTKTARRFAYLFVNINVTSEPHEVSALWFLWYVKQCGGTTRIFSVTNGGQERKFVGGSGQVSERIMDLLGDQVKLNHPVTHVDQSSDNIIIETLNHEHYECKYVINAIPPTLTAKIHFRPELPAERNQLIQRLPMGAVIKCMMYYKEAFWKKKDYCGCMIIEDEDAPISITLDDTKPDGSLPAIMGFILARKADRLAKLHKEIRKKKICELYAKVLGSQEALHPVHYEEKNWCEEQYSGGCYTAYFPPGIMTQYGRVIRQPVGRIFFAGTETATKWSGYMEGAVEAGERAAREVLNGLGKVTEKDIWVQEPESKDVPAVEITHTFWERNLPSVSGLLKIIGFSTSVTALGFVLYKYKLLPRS
The assay is described as follows: Mao-A activity assay (commercial kit, p-tyramine, H2O2 fluorimetry). Format: biochemical. As to conditions: 25 μM, 10 min incubation. The method, then:
Mao-A activity was measured using a commercial assay kit according to the manufacturer’s instructions. Mao-A (0.837 μM) was incubated with vehicle (1 % DMSO), Clorgyline (50 μM), or various concentrations (1, 5, or 25 μM) of EN460, I2, I26, or I29 for 10 min. Mao-A catalyzes the oxidative deamination of p-tyramine, generating H2O2, which was quantified fluorimetrically (λex= 530; λem= 585 nm). Mao-A activity is presented as a percentage of the vehicle control.

For `O=C1/C(=C/c2ccc(-c3ccccc3)o2)C(C(F)(F)F)=NN1c1ccccc1F` [I29], the CHOP expression entry in assay [1] was “downregulate CHOP expression”. Moreover, the “reduced state of ERO1 compared with EN460” value in assay [2] is “more effective than EN460”. Also, the “TMRM fluorescence (mitochondrial membrane potential)” value in the assay with WT and SEPN1 KO myotubes is reported as “significant increase in TMRM fluorescence”. For the same molecule, the “metabolic activity (MTS assay)” value with MDAMB231 cells was “significantly reduced metabolic activity; also recorded: higher potency than EN460”. In assay [3], the “Mao-A activity (percentage of the vehicle control)” value was “inhibited Mao-A activity”.
On to `O=C(O)c1cc(N2N=C(C(F)(F)F)/C(=C\c3ccc(-c4ccccc4)o3)C2=O)ccc1Cl` [EN460, reference compound], for which the “metabolic activity (MTS assay)” value in the assay on MDAMB231 cells is recorded as “significantly reduced metabolic activity”. For the same molecule, in assay [3], the “Mao-A activity (percentage of the vehicle control)” value is “inhibited Mao-A activity”.
